pIC50: −log10 of the molar value. Several values for one entry are separate records, joined by “and”; a condition that tells them apart may be missing. Identical values can stand only once. Like-named read-outs stand apart in the source and are kept apart here.
Legend:
HIV [1] = details: MT4 cells, literature data, cited from earlier work
HIV [2] = test: Inhibition of HIV multiplication in cell culture, H9 cells (Koshida et al. method); assay type: cell-based; details: for inhibition at 0.1 µg/mL: Human immunodeficiency virus 1, H9, 0.1 μg/ml; for inhibition at 1 µg/mL: Human immunodeficiency virus 1, H9, 1 μg/ml; for inhibition at 10 µg/mL: Human immunodeficiency virus 1, H9, 10 μg/ml
Description: The activity against human immunodeficiency virus (HIV) has been tested for the compounds listed and the resulting activities are shown in the Table below.
The data in the Table were gathered and tests performed as described by Koshida et el., "Inhibition of Human Immunodeficiency Virus in vitro by Combination of 3'-Azido-3'-Deoxythymidine and Foscarnet" in Antimicrob Agents and Chemotherapy, Vol 33 (1989) p. 778-780 (on H9 cells for compounds X-XII) and by De Clercq et el, Nucleosides and Nucleotides, Vol 8 (1989) p. 659-671 (on MT4 cells, literature data for compounds XIV-XVI).

HIV (HTLV-IIIB) = test: Test I, effect of compounds on HIV in H9 cells (HIV antigen containing cells); assay type: cell-based; details: read-out: Concentration for 50% inhibition (IC50) of human immuno deficiency virus multiplication in cell culture
Description: Materials and methods: HIV infection of H9 cells
H9 cells, 10^5 cells per well on a 24 well plate, suspended in 2 ml RPMI-medium containing 10% fetal calf serum, 100 μg/ml penicillin, 10 μg/ml streptomycin sulfate and 2μg/ml polybrene are exposed to HIV (HTLV-IIIB) and different concentrations of the test compounds. The plates are incubated at 37° C. in 5% CO2 for 6-7 days. The contents in each well is then homogenized with a pipette and transferred to a centrifuge tube. After centrifugation for 10 min at 1500 rpm the supernatant is removed and the cell pellet is analyzed by fixing in methanol on glass plates. Human HIV positive serum diluted 1:80 or 1:160 is added and incubated for 30 min at 37° C. The plate is then washed with phosphate-buffered saline (PBS) containing Ca^2+ and Mg^2+. Sheep antihuman conjugate (FITC) is added and after a new incubation the plate is again washed with PBS. Contrast staining is done with Evans blue and after drying the frequency of HIV antigen containing cells is determined in a microscope.

[3] = Test II, cellular toxicity, H9 cells; assay type: cell-based; details: human, read-out: % inhibition of cell multiplication
Description: H9 cells, 2×10^7 cells per plate, are incubated in […] medium containing 10% fetal calf serum, 70 mg/l penicillin, 100 mg/l streptomycin and 10 mM hepes, in absence or presence of test compounds. The number of cells per plate is determined after 48 h. Cells incubated in the absence of test compounds then underwent two cell division cycles.
(§1) F5000 cells, which are human embryo cells, 1×10^5 cells per plate, are incubated in Eagle's minimal essential medium, supplemented with Earle's salts, non-essential amino acids, 10% fetal calf serum, 10 mM hopes, 70 mg/l penicillin and 100 mg/l streptomycin, in absence or presence of test compounds. The number of cells per plate is determined after 48 h. Cells incubated in the absence of test compounds underwent one cell division cycle.

[4] = Test II, cellular toxicity, F5000 cells; assay type: cell-based; details: human, read-out: % inhibition of cell multiplication
Description: as §1

[5] = Human immunodeficiency virus 1, 6-7 days

## O=c1[nH]c(=O)n([C@H]2C[C@H](F)[C@@H](CO)O2)cc1I [XV, 5-iodo-1-(3'-fluoro-2',3'-dideoxy-β-D-ribofuranosyl)uracil]
HIV [1]; 0.1 μg/ml
  % Inhibition of HIV multiplication: 50%

## O=c1[nH]c(=O)n([C@H]2C[C@H](F)[C@@H](CO)O2)cc1Br [XIV, 5-bromo-1-(3'-fluoro-2',3'-dideoxy-β-D-ribofuranosyl)uracil]
HIV [1]; 0.1 μg/ml
  % Inhibition of HIV multiplication: 50%

## O=c1[nH]c(=O)n([C@H]2C[C@H](F)[C@@H](CO)O2)cc1Cl [XVI]
HIV [1]; 0.04 μg/ml
  % Inhibition of HIV multiplication: 50%

## CO[C@H]1[C@H](N=[N+]=[N-])[C@@H](CO)O[C@H]1n1cc(C)c(=O)[nH]c1=O [Example XI, 1-(3'-azido-2'-methoxy-2',3'-dideoxy-β-D-arabinofuranosyl)thymine]
HIV [2]; 0.1 μg/ml
  % Inhibition of HIV multiplication: 32%
HIV [2]; 1 μg/ml
  % Inhibition of HIV multiplication: 38%
HIV [2]
  inhibition at 0.1 µg/mL: 27%
  inhibition at 1 µg/mL: 21%

## CO[C@H]1[C@H](F)[C@@H](CO)O[C@H]1n1cc(C)c(=O)[nH]c1=O [Example X, 1-(3'-fluoro-2'-methoxy-2',3'-dideoxy-β-D-arabinofuranosyl)thymine]
HIV [2]; 10 μg/ml
  % Inhibition of HIV multiplication: 83% and 79%
HIV [2]
  inhibition at 0.1 µg/mL: 58%
  inhibition at 10 µg/mL: 85%

## CCCc1cn([C@H]2C[C@H](F)[C@@H](CO)O2)c(=O)[nH]c1=O [VSA 408, 1-(3'-F-2',3'-dideoxy-β-ribofuranosyl)-5-propyl-uracil]
HIV (HTLV-IIIB); [5]
  pIC50: 6.00
[3]; 250 μM
  inhibition at 48 h, 250 µM: 15%
[4]
  inhibition at 48 h, 100 µM: 0%

## CC(=O)OC[C@H]1O[C@@H](n2cc(C)c(=O)[nH]c2=O)C[C@@H]1F [VSB 423, 1-(5'-acetyl-3'-fluoro-2',3'-dideoxy-β-D-ribofuranosyl)-5-methyluracil]
HIV (HTLV-IIIB); 6-7 days
  pIC50: > 8.00

## O=c1ccn([C@H]2C[C@H](F)[C@@H](CO)O2)c(=O)[nH]1 [VSA 417, 1-(3'-F-2',3'-dideoxy-β-D-ribofuranosyl)-uracil]
HIV (HTLV-IIIB); [5]
  pIC50: 6.30
[4]
  inhibition at 48 h, 100 µM: 10%

## CCc1cn([C@H]2C[C@H](F)[C@@H](CO)O2)c(=O)[nH]c1=O [VSA 410, 1-(3'-F-2',3'-dideoxy-β-D-ribofuranosyl)-5-ethyl-uracil]
HIV (HTLV-IIIB); [5]
  pIC50: > 6.00
[3]; 100 μM
  inhibition at 48 h, 100 µM: 25%
[4]
  inhibition at 48 h, 100 µM: 25%

## C#C[C@H]1C[C@H](n2cc(C)c(=O)[nH]c2=O)O[C@@H]1CO [Example XII, 1-[2,3-Dideoxy-3-C-ethynyl-β-D-erythro-pentofuranosyl]thymine]
HIV [2]
  inhibition at 1 µg/mL: 18%
  inhibition at 10 µg/mL: 54%

From patent US5506215A, “1-(3'-fluoro-2',3'-dideoxy-β-D-ribofuranosyl)-5-substituted pyrimidine nucleosides” (Medivir AB, priority 1987, dated 1996)
